In patent publication US20230257396A1, “MACROCYCLES AND THEIR USE” (BLOSSOMHILL THERAPEUTICS, INC., priority 2020, published 2023):

Assays:
Test in all cases: KINOMEscan kinase binding assay (Eurofins/DiscoveRx), % Ctrl
kinases [1] = biological target: T1, kinases (Homo sapiens, UniProt P00519, E255K)
T1 construct: purchased Eurofins/DiscoveRx; host or cells: E. coli BL21-derived host (T7 phage display) for most kinases; HEK-293 for the rest
Procedure, shortened: (§1)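 Read-out is qPCR of kinase eluted from ligand-coated streptavidin beads after 1 h room-temperature competition with test compound. Values are % Ctrl at the tested concentration, lower meaning tighter binding.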

kinases [2] = biological target: T2, kinases (Homo sapiens, UniProt P00519, F317I)
T2 construct: purchased Eurofins/DiscoveRx; host or cells: E. coli BL21-derived host (T7 phage display) for most kinases; HEK-293 for the rest
Procedure, shortened: as §1

kinases [3] = biological target: T3, kinases (Homo sapiens, UniProt P00519, H396P)
T3 construct: purchased Eurofins/DiscoveRx; host or cells: E. coli BL21-derived host (T7 phage display) for most kinases; HEK-293 for the rest
Procedure, shortened: as §1

kinases [4] = biological target: T4, kinases (Homo sapiens, UniProt P00519, T315I)
T4 construct: purchased Eurofins/DiscoveRx; host or cells: E. coli BL21-derived host (T7 phage display) for most kinases; HEK-293 for the rest
Procedure, shortened: as §1

kinases [5] = biological target: T5, kinases (Homo sapiens, UniProt P00533, DEL752-759)
T5 construct: purchased Eurofins/DiscoveRx; host or cells: E. coli BL21-derived host (T7 phage display) for most kinases; HEK-293 for the rest
Procedure, shortened: as §1

kinases [6] = biological target: T6, kinases (Homo sapiens, UniProt P00533, G719S)
T6 construct: purchased Eurofins/DiscoveRx; host or cells: E. coli BL21-derived host (T7 phage display) for most kinases; HEK-293 for the rest
Procedure, shortened: as §1

kinases [7] = biological target: T7, kinases (Homo sapiens, UniProt P00533, L858R)
T7 construct: purchased Eurofins/DiscoveRx; host or cells: E. coli BL21-derived host (T7 phage display) for most kinases; HEK-293 for the rest
Procedure, shortened: as §1

kinases [8] = biological target: T8, kinases (Homo sapiens, UniProt P07949)
T8 construct: purchased Eurofins/DiscoveRx; host or cells: E. coli BL21-derived host (T7 phage display) for most kinases; HEK-293 for the rest
Procedure, shortened: as §1

kinases [9] = biological target: T9, kinases (Homo sapiens, UniProt P07949, M918T)
T9 construct: purchased Eurofins/DiscoveRx; host or cells: E. coli BL21-derived host (T7 phage display) for most kinases; HEK-293 for the rest
Procedure, shortened: as §1

kinases [10] = biological target: T10, kinases (Homo sapiens, UniProt P09619)
T10 construct: purchased Eurofins/DiscoveRx; host or cells: E. coli BL21-derived host (T7 phage display) for most kinases; HEK-293 for the rest
Procedure, shortened: as §1

kinases [11] = biological target: T11, kinases (Homo sapiens, UniProt P10721, D816H)
T11 construct: purchased Eurofins/DiscoveRx; host or cells: E. coli BL21-derived host (T7 phage display) for most kinases; HEK-293 for the rest
Procedure, shortened: as §1

kinases [12] = biological target: T12, kinases (Homo sapiens, UniProt P10721, L576P)
T12 construct: purchased Eurofins/DiscoveRx; host or cells: E. coli BL21-derived host (T7 phage display) for most kinases; HEK-293 for the rest
Procedure, shortened: as §1

kinases [13] = biological target: T13, kinases (Homo sapiens, UniProt P10721, V559D)
T13 construct: purchased Eurofins/DiscoveRx; host or cells: E. coli BL21-derived host (T7 phage display) for most kinases; HEK-293 for the rest
Procedure, shortened: as §1

kinases [14] = biological target: T14, kinases (Homo sapiens, UniProt P16234)
T14 construct: purchased Eurofins/DiscoveRx; host or cells: E. coli BL21-derived host (T7 phage display) for most kinases; HEK-293 for the rest
Procedure, shortened: as §1

kinases [15] = biological target: T15, kinases (Homo sapiens, UniProt P36888, D835Y)
T15 construct: purchased Eurofins/DiscoveRx; host or cells: E. coli BL21-derived host (T7 phage display) for most kinases; HEK-293 for the rest
T15 sequence (P36888 27-993 D835Y): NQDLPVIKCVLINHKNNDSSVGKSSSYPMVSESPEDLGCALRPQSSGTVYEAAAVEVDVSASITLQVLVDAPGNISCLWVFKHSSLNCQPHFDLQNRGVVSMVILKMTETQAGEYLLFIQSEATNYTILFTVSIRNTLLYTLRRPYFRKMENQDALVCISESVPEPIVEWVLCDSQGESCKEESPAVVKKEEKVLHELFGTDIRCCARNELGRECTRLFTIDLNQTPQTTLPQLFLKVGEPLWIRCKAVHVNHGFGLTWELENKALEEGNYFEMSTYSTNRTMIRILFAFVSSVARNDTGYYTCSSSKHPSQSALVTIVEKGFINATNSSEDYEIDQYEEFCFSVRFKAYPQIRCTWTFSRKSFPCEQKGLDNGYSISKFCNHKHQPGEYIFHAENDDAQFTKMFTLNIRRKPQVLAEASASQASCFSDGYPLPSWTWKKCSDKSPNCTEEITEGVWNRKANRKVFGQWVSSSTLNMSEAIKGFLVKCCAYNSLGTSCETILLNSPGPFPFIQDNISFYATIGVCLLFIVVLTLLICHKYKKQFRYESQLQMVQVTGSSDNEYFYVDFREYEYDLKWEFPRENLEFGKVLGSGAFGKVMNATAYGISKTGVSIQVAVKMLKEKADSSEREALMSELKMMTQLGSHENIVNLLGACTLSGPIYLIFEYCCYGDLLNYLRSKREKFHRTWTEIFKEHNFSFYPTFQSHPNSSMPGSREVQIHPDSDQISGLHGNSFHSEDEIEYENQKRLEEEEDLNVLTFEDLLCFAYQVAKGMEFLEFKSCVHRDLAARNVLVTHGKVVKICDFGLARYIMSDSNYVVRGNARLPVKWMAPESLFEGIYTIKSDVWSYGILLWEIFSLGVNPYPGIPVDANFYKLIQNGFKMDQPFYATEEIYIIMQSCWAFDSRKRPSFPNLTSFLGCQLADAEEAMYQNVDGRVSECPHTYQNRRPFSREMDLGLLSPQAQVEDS
Procedure, shortened: as §1

T13 sequence (P10721 26-976 V559D): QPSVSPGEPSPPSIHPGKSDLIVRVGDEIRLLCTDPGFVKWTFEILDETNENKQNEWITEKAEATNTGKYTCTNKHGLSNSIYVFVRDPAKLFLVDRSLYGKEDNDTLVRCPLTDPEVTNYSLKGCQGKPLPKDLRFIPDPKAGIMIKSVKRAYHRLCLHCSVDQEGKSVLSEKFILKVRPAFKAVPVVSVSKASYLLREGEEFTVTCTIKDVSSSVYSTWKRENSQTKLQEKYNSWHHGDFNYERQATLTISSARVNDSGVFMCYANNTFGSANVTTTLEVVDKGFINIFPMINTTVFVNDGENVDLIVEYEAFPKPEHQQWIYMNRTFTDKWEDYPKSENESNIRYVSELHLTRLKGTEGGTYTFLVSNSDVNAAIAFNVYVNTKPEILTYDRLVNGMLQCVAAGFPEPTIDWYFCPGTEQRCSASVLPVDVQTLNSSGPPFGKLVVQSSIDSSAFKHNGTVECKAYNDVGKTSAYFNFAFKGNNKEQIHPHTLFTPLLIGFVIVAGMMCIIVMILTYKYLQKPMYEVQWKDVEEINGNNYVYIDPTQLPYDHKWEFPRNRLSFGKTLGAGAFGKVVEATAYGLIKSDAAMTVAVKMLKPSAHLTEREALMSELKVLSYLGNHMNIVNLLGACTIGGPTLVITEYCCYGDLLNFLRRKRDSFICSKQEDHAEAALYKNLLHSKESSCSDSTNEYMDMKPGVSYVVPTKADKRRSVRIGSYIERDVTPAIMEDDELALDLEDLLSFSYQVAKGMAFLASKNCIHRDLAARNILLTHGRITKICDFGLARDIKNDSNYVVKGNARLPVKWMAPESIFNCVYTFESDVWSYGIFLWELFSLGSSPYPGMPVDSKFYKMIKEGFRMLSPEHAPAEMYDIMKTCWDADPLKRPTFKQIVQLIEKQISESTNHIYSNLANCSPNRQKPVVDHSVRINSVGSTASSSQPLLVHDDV
T10 sequence (P09619 33-1106): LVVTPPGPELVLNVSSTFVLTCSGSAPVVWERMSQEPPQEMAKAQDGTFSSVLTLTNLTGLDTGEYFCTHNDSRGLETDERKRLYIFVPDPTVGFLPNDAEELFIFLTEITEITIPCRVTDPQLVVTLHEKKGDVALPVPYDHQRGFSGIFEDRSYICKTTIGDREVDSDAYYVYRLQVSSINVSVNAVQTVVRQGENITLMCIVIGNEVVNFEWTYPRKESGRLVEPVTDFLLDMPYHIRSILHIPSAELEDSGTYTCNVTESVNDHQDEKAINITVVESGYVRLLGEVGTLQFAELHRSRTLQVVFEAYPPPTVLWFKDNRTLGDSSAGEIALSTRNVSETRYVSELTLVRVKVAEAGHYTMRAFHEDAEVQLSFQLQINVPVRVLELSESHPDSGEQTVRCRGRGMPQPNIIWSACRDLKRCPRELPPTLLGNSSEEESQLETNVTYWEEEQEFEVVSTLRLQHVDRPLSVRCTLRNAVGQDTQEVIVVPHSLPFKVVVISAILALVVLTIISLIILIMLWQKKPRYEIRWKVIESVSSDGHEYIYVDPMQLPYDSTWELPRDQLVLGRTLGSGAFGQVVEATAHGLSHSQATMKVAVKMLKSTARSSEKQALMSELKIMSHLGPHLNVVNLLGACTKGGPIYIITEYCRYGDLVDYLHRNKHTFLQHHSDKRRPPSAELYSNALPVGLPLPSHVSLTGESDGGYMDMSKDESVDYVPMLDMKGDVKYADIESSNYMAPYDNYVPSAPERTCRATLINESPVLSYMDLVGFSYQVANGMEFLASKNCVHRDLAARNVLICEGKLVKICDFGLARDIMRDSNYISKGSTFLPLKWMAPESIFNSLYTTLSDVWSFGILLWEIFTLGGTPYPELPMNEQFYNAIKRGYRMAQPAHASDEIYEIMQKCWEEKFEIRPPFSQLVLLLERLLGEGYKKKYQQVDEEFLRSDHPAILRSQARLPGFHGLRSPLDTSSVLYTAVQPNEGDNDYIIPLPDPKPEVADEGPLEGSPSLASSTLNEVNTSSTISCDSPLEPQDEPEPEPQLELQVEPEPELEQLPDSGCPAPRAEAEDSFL
T12 sequence (P10721 26-976 L576P): as the sequence (P10721 26-976 V559D) above, with D534V, L551P counted along it
T8 sequence (P07949 29-1114): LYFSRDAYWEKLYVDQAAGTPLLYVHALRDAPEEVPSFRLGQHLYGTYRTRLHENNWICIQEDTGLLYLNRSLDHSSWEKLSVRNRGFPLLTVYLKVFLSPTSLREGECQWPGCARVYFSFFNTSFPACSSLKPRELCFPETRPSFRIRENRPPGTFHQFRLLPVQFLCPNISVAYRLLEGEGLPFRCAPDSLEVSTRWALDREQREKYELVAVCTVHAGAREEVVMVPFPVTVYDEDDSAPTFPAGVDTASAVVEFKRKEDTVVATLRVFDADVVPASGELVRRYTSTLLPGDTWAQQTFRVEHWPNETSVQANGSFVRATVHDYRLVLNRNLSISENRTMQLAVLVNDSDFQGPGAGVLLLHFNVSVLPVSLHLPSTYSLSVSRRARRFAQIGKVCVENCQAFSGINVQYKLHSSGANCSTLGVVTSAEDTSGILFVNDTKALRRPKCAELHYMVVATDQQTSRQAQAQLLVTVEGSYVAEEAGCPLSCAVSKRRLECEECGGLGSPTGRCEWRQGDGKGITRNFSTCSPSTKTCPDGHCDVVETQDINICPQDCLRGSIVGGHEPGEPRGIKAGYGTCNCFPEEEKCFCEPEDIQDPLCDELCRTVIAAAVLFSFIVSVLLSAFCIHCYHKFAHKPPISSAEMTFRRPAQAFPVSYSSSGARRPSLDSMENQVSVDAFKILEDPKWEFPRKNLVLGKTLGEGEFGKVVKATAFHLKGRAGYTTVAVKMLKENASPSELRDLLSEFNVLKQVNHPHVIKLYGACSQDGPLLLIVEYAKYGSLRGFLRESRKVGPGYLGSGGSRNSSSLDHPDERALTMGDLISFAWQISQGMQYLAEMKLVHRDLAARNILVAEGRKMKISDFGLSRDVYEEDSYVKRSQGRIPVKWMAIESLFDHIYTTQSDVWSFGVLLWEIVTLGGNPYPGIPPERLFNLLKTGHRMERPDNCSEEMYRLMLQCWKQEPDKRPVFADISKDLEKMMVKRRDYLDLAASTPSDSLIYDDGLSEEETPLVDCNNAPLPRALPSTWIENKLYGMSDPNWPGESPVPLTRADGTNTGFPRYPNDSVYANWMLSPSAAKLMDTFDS
T14 sequence (P16234 24-1089): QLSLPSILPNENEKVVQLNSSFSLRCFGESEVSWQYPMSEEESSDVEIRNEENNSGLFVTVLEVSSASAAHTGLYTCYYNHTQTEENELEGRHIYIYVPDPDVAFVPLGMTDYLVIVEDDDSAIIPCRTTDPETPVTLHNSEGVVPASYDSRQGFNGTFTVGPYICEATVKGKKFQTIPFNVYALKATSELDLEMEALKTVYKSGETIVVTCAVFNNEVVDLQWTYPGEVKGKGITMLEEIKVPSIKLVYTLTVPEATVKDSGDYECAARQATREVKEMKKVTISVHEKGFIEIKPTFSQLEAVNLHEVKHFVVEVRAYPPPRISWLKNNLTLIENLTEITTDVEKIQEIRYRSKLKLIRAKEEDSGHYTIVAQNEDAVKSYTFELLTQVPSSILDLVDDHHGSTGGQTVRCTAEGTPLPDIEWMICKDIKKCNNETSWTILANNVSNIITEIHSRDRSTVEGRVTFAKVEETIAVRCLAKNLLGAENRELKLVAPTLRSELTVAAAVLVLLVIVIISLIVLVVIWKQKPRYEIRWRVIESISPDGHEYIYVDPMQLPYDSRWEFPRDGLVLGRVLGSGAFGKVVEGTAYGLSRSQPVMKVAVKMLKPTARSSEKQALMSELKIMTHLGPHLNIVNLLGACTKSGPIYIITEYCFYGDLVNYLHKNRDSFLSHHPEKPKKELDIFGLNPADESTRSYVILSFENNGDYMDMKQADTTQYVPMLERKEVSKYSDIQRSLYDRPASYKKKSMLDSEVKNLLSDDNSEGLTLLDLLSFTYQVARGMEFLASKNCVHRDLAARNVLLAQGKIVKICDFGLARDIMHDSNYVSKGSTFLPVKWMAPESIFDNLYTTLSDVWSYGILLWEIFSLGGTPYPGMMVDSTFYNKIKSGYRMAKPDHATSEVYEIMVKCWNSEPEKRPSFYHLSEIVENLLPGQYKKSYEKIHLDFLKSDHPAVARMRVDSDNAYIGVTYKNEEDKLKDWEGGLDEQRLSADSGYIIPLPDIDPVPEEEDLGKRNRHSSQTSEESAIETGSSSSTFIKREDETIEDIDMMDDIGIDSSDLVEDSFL
T9 sequence (P07949 29-1114 M918T): as the sequence (P07949 29-1114) above, with M890T counted along it
T11 sequence (P10721 26-976 D816H): as the sequence (P10721 26-976 V559D) above, with D534V, D791H counted along it

## Cc1cc2c([nH]1)/C=C1\C(=O)Nc3ccc(cc31)-c1ccnn1CCOCCN(C)C2=O [Ex. 41, [19a(20)Z]-2,5-dimethyl-6,7,9,10-tetrahydro-1H-15,17-(ethanediylidene)pyrazolo[1,5-d]dipyrrolo[3,4-h:2′,3′-k][1,4,14]oxadiazacyclohexadecine-4,19(5H,18H)-dione]
Kinases [1]; 1 μM; ABL1(E255K)-phosphorylated
  % Ctrl, ABL1(E255K)-phosphorylated: 49 % Ctrl
Kinases [2]; 1 μM; ABL1(F317I)-nonphosphorylated
  % Ctrl, ABL1(F317I)-nonphosphorylated: 54 % Ctrl
Kinases [2]; 1 μM; ABL1(F317I)-phosphorylated
  % Ctrl, ABL1(F317I)-phosphorylated: 75 % Ctrl
Kinases [3]; 1 μM; ABL1(H396P)-nonphosphorylated
  % Ctrl, ABL1(H396P)-nonphosphorylated: 6.1 % Ctrl
Kinases [3]; 1 μM; ABL1(H396P)-phosphorylated
  % Ctrl, ABL1(H396P)-phosphorylated: 5 % Ctrl
Kinases [4]; 1 μM; ABL1(T315I)-nonphosphorylated
  % Ctrl, ABL1(T315I)-nonphosphorylated: 16 % Ctrl
Kinases [4]; 1 μM; ABL1(T315I)-phosphorylated
  % Ctrl, ABL1(T315I)-phosphorylated: 19 % Ctrl
Kinases [5]; 1 μM; EGFR(S752-I759del)
  % Ctrl, EGFR(S752-I759del): 89 % Ctrl
Kinases [6]; 1 μM; EGFR(G719S)
  % Ctrl, EGFR(G719S): 86 % Ctrl
Kinases [7]; 1 μM; EGFR(L858R)
  % Ctrl, EGFR(L858R): 93 % Ctrl
Kinases [8]; 1 μM; RET
  % Ctrl, RET: 34 % Ctrl
Kinases [9]; 1 μM; RET(M918T)
  % Ctrl, RET(M918T): 45 % Ctrl
Kinases [10]; 1 μM; PDGFRB
  % Ctrl, PDGFRB: 5.5 % Ctrl
Kinases [11]; 1 μM; KIT(D816H)
  % Ctrl, KIT(D816H): 38 % Ctrl
Kinases [12]; 1 μM; KIT(L576P)
  % Ctrl, KIT(L576P): 40 % Ctrl
Kinases [13]; 1 μM; KIT(V559D)
  % Ctrl, KIT(V559D): 64 % Ctrl
Kinases [14]; 1 μM; PDGFRA
  % Ctrl, PDGFRA: 19 % Ctrl
Kinases [15]; 1 μM; FLT3(D835Y)
  % Ctrl, FLT3(D835Y): 8.8 % Ctrl

## Cc1cc2c([nH]1)/C=C1\C(=O)Nc3cnc(cc31)-c1cnn(C)c1CN(C)CCN(C)C2=O [Ex. 172, [3a(4)Z]-6,9,12,14-tetramethyl-9,10,11,12,13,14-hexahydro-17,1-(azenometheno)pyrazolo[4,3-m]dipyrrolo[3,2-f:3′,4′-i][1,4]diazacyclopentadecine-3,8(2H,5H)-dione]
Kinases [1]; 1 μM; target ABL1(E255K)-phosphorylated
  % Ctrl, ABL1(E255K)-phosphorylated: 0.4 % Ctrl
Kinases [2]; 1 μM; target ABL1(F317I)-nonphosphorylated
  % Ctrl, ABL1(F317I)-nonphosphorylated: 24 % Ctrl
Kinases [2]; 1 μM; target ABL1(F317I)-phosphorylated
  % Ctrl, ABL1(F317I)-phosphorylated: 9.3 % Ctrl
Kinases [3]; 1 μM; target ABL1(H396P)-nonphosphorylated
  % Ctrl, ABL1(H396P)-nonphosphorylated: 0 % Ctrl
Kinases [3]; 1 μM; target ABL1(H396P)-phosphorylated
  % Ctrl, ABL1(H396P)-phosphorylated: 0.1 % Ctrl
Kinases [4]; 1 μM; target ABL1(T315I)-nonphosphorylated
  % Ctrl, ABL1(T315I)-nonphosphorylated: 0 % Ctrl
Kinases [4]; 1 μM; target ABL1(T315I)-phosphorylated
  % Ctrl, ABL1(T315I)-phosphorylated: 1.7 % Ctrl
Kinases [5]; 1 μM; target EGFR(S752-I759del)
  % Ctrl, EGFR(S752-I759del): 37 % Ctrl
Kinases [6]; 1 μM; target EGFR(G719S)
  % Ctrl, EGFR(G719S): 82 % Ctrl
Kinases [7]; 1 μM; target EGFR(L858R)
  % Ctrl, EGFR(L858R): 48 % Ctrl
Kinases [8]; 1 μM; target RET
  % Ctrl, RET: 3.1 % Ctrl
Kinases [9]; 1 μM; target RET(M918T)
  % Ctrl, RET(M918T): 0.8 % Ctrl
Kinases [10]; 1 μM; target PDGFRB
  % Ctrl, PDGFRB: 1.9 % Ctrl
Kinases [11]; 1 μM; target KIT(D816H)
  % Ctrl, KIT(D816H): 6.4 % Ctrl
Kinases [12]; 1 μM; target KIT(L576P)
  % Ctrl, KIT(L576P): 16 % Ctrl
Kinases [13]; 1 μM; target KIT(V559D)
  % Ctrl, KIT(V559D): 42 % Ctrl
Kinases [14]; 1 μM; target PDGFRA
  % Ctrl, PDGFRA: 44 % Ctrl
Kinases [15]; 1 μM; target FLT3(D835Y)
  % Ctrl, FLT3(D835Y): 0.1 % Ctrl

## Cc1cc2c([nH]1)/C=C1\C(=O)Nc3ccc(cc31)-c1c(noc1C)CNCCN(C)C2=O [Ex. 139, [3a(4)Z]-6,9,16-trimethyl-10,11,12,13-tetrahydro-2H-1,17-(ethanediylidene)[1,2]oxazolo[4,3-m]dipyrrolo[3,2-f:3′,4′-i][1,4]diazacyclopentadecine-3,8(5H,9H)-dione]
Kinases [1]; target ABL1(E255K)-phosphorylated; 1 μM
  % Ctrl, ABL1(E255K)-phosphorylated: 4.7 % Ctrl
Kinases [2]; target ABL1(F317I)-nonphosphorylated; 1 μM
  % Ctrl, ABL1(F317I)-nonphosphorylated: 72 % Ctrl
Kinases [2]; target ABL1(F317I)-phosphorylated; 1 μM
  % Ctrl, ABL1(F317I)-phosphorylated: 60 % Ctrl
Kinases [3]; target ABL1(H396P)-nonphosphorylated; 1 μM
  % Ctrl, ABL1(H396P)-nonphosphorylated: 2 % Ctrl
Kinases [3]; target ABL1(H396P)-phosphorylated; 1 μM
  % Ctrl, ABL1(H396P)-phosphorylated: 9.5 % Ctrl
Kinases [4]; target ABL1(T315I)-nonphosphorylated; 1 μM
  % Ctrl, ABL1(T315I)-nonphosphorylated: 0.1 % Ctrl
Kinases [4]; target ABL1(T315I)-phosphorylated; 1 μM
  % Ctrl, ABL1(T315I)-phosphorylated: 3 % Ctrl
Kinases [5]; target EGFR(S752-I759del); 1 μM
  % Ctrl, EGFR(S752-I759del): 74 % Ctrl
Kinases [6]; target EGFR(G719S); 1 μM
  % Ctrl, EGFR(G719S): 84 % Ctrl
Kinases [7]; target EGFR(L858R); 1 μM
  % Ctrl, EGFR(L858R): 80 % Ctrl
Kinases [8]; target RET; 1 μM
  % Ctrl, RET: 42 % Ctrl
Kinases [9]; target RET(M918T); 1 μM
  % Ctrl, RET(M918T): 41 % Ctrl
Kinases [10]; target PDGFRB; 1 μM
  % Ctrl, PDGFRB: 73 % Ctrl
Kinases [11]; target KIT(D816H); 1 μM
  % Ctrl, KIT(D816H): 67 % Ctrl
Kinases [12]; target KIT(L576P); 1 μM
  % Ctrl, KIT(L576P): 84 % Ctrl
Kinases [13]; target KIT(V559D); 1 μM
  % Ctrl, KIT(V559D): 91 % Ctrl
Kinases [14]; target PDGFRA; 1 μM
  % Ctrl, PDGFRA: 74 % Ctrl
Kinases [15]; target FLT3(D835Y); 1 μM
  % Ctrl, FLT3(D835Y): 2.5 % Ctrl
